Experimental data reported in patent US20040101888A1, “Vector system used in screening active substances” (Max-Delbruck-Centrum Fur Molekulare Medizin, priority 2001, published 2004).

Test system: TCRS containing NIH-3T3 fibroblasts cells
Test: Detection of cellular translational control activities by TCRS reporter in drug-treated cells
Type: cell-based
Conditions: TCRS containing NIH-3T3 fibroblasts treated with drug
Source text: TCRS functions in cell lines. To examine the applicability of the TCRS in vertebrate cells we introduced the improved TCRS-vector into fibroblasts by transient transfection. […] Importantly, removal of the regulatory uORF by […] point mutation of its translation initiation site results in loss of translational controlled SR protein expression. Accordingly, the TCRS can be used to screen for drugs or to monitor pharmacological effects in tissue culture.
To examine the potential of the TCRS for detection of changes in translation control activities by external supplied drugs, we treated the TCRS containing NIH-3T3 fibroblasts cells with aminopurine and rapamycin, respectively.
Treatment with translational active drugs, such as rapamycin or aminopurine, result in differential activation of distinct translation control pathways, causing a shift in reporter protein expression. Shift in reporter expression was also observed with co-transfected expression vectors encoding eucaryotic translation initiation factors eIF2or eIF4E, or mutants thereof. Reporter protein expression shifts were dependent on an intact uORF.

aminopurine
changes of the reporter peptide levels (PR and SR reporter protein expression from TCRS): Differential changes of the peptide levels were observed
